# Experimental data as given in PubChem BioAssay (NCI).
#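 How tested: cells in 96-well plates exposed to compound for 48 hours at five concentrations. TGI is the concentration that stops growth completely.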 Where a SMILES comes first, the peptide text is derived from it. The star is where a group is joined. Boc = CC(C)(C)OC(=O)*; Bn = c1ccc(C*)cc1
# Tested on: U251 CNS
# Assay: DTP human tumour cell line panel, 48 h
row,SMILES,TGI [µM]
1,CCN(CC)Cc1ccc(C(=S)Nc2ccc(Cl)cc2)s1,26.2
2,COC(=O)C(CC(C)C)NC(=O)C(C)NC(=O)C(Cc1ccc(OCc2ccccc2)cc1)NC(=O)C(COCc1ccccc1)NC(=O)OC(C)(C)C (stereo not given) (Boc-S(Bn)Y(Bn)AL-OMe; configuration not given here),> 100
3,CCn1c(-c2ccccc2)cs/c1=N\C(P(=O)(O)O)P(=O)(O)O,> 100
4,Cc1ccc(-n2cnc(C(=N)C#N)c2N)cc1,> 100
5,COC(=O)/C=C(\C(=O)OC)C1C(=O)Oc2c(C)c(=O)c3ccccc3n21 (stereo not given),> 100
6,O=C(O)c1nnsc1-c1ccc(-c2snnc2C(=O)O)cc1,> 100
7,CC(=O)c1ccccc1NP(=O)(c1ccccc1)c1ccccc1,> 100

# Tested on: T-47D breast
# Assay: DTP human tumour cell line panel, 48 h
row,SMILES,TGI [µM]
1,CCN(CC)Cc1ccc(C(=S)Nc2ccc(Cl)cc2)s1,34.2
2,COC(=O)C(CC(C)C)NC(=O)C(C)NC(=O)C(Cc1ccc(OCc2ccccc2)cc1)NC(=O)C(COCc1ccccc1)NC(=O)OC(C)(C)C (stereo not given) (Boc-S(Bn)Y(Bn)AL-OMe; configuration not given here),> 100
3,Cc1ccc(-n2cnc(C(=N)C#N)c2N)cc1,> 100
4,COC(=O)/C=C(\C(=O)OC)C1C(=O)Oc2c(C)c(=O)c3ccccc3n21 (stereo not given),> 100
5,O=C(O)c1nnsc1-c1ccc(-c2snnc2C(=O)O)cc1,> 100
6,CC(=O)c1ccccc1NP(=O)(c1ccccc1)c1ccccc1,> 100

# Tested on: HL-60(TB) leukemia
# Assay: DTP human tumour cell line panel, 48 h
row,SMILES,TGI [µM]
1,CCN(CC)Cc1ccc(C(=S)Nc2ccc(Cl)cc2)s1,10.5
2,COC(=O)C(CC(C)C)NC(=O)C(C)NC(=O)C(Cc1ccc(OCc2ccccc2)cc1)NC(=O)C(COCc1ccccc1)NC(=O)OC(C)(C)C (stereo not given) (Boc-S(Bn)Y(Bn)AL-OMe; configuration not given here),> 100
3,CCn1c(-c2ccccc2)cs/c1=N\C(P(=O)(O)O)P(=O)(O)O,> 100
4,Cc1ccc(-n2cnc(C(=N)C#N)c2N)cc1,> 100
5,COC(=O)/C=C(\C(=O)OC)C1C(=O)Oc2c(C)c(=O)c3ccccc3n21 (stereo not given),> 100
6,O=C(O)c1nnsc1-c1ccc(-c2snnc2C(=O)O)cc1,> 100
7,CC(=O)c1ccccc1NP(=O)(c1ccccc1)c1ccccc1,87.7

# Tested on: SNB-75 CNS
# Assay: DTP human tumour cell line panel, 48 h
row,SMILES,TGI [µM]
1,COC(=O)C(CC(C)C)NC(=O)C(C)NC(=O)C(Cc1ccc(OCc2ccccc2)cc1)NC(=O)C(COCc1ccccc1)NC(=O)OC(C)(C)C (stereo not given) (Boc-S(Bn)Y(Bn)AL-OMe; configuration not given here),> 100
2,CCn1c(-c2ccccc2)cs/c1=N\C(P(=O)(O)O)P(=O)(O)O,> 100
3,Cc1ccc(-n2cnc(C(=N)C#N)c2N)cc1,> 100
4,COC(=O)/C=C(\C(=O)OC)C1C(=O)Oc2c(C)c(=O)c3ccccc3n21 (stereo not given),> 100
5,O=C(O)c1nnsc1-c1ccc(-c2snnc2C(=O)O)cc1,> 100

# Tested on: SF-539 CNS
# Assay: DTP human tumour cell line panel, 48 h
row,SMILES,TGI [µM]
1,CCN(CC)Cc1ccc(C(=S)Nc2ccc(Cl)cc2)s1,31.6
2,COC(=O)C(CC(C)C)NC(=O)C(C)NC(=O)C(Cc1ccc(OCc2ccccc2)cc1)NC(=O)C(COCc1ccccc1)NC(=O)OC(C)(C)C (stereo not given) (Boc-S(Bn)Y(Bn)AL-OMe; configuration not given here),> 100
3,CCn1c(-c2ccccc2)cs/c1=N\C(P(=O)(O)O)P(=O)(O)O,> 100
4,Cc1ccc(-n2cnc(C(=N)C#N)c2N)cc1,> 100
5,COC(=O)/C=C(\C(=O)OC)C1C(=O)Oc2c(C)c(=O)c3ccccc3n21 (stereo not given),> 100
6,O=C(O)c1nnsc1-c1ccc(-c2snnc2C(=O)O)cc1,69.7
7,CC(=O)c1ccccc1NP(=O)(c1ccccc1)c1ccccc1,> 100

# Tested on: HCT-15 colon
# Assay: DTP human tumour cell line panel, 48 h
row,SMILES,TGI [µM]
1,CCN(CC)Cc1ccc(C(=S)Nc2ccc(Cl)cc2)s1,23
2,CCn1c(-c2ccccc2)cs/c1=N\C(P(=O)(O)O)P(=O)(O)O,> 100
3,Cc1ccc(-n2cnc(C(=N)C#N)c2N)cc1,> 100
4,COC(=O)/C=C(\C(=O)OC)C1C(=O)Oc2c(C)c(=O)c3ccccc3n21 (stereo not given),> 100
5,O=C(O)c1nnsc1-c1ccc(-c2snnc2C(=O)O)cc1,> 100
6,CC(=O)c1ccccc1NP(=O)(c1ccccc1)c1ccccc1,> 100

# Tested on: NCI-H460 lung
# Assay: DTP human tumour cell line panel, 48 h
row,SMILES,TGI [µM]
1,CCN(CC)Cc1ccc(C(=S)Nc2ccc(Cl)cc2)s1,27.9
2,COC(=O)C(CC(C)C)NC(=O)C(C)NC(=O)C(Cc1ccc(OCc2ccccc2)cc1)NC(=O)C(COCc1ccccc1)NC(=O)OC(C)(C)C (stereo not given) (Boc-S(Bn)Y(Bn)AL-OMe; configuration not given here),> 100
3,CCn1c(-c2ccccc2)cs/c1=N\C(P(=O)(O)O)P(=O)(O)O,> 100
4,Cc1ccc(-n2cnc(C(=N)C#N)c2N)cc1,> 100
5,COC(=O)/C=C(\C(=O)OC)C1C(=O)Oc2c(C)c(=O)c3ccccc3n21 (stereo not given),> 100
6,O=C(O)c1nnsc1-c1ccc(-c2snnc2C(=O)O)cc1,> 100
7,CC(=O)c1ccccc1NP(=O)(c1ccccc1)c1ccccc1,> 100

# Tested on: COLO 205 colon
# Assay: DTP human tumour cell line panel, 48 h
row,SMILES,TGI [µM]
1,CCN(CC)Cc1ccc(C(=S)Nc2ccc(Cl)cc2)s1,5.2
2,COC(=O)C(CC(C)C)NC(=O)C(C)NC(=O)C(Cc1ccc(OCc2ccccc2)cc1)NC(=O)C(COCc1ccccc1)NC(=O)OC(C)(C)C (stereo not given) (Boc-S(Bn)Y(Bn)AL-OMe; configuration not given here),> 100
3,CCn1c(-c2ccccc2)cs/c1=N\C(P(=O)(O)O)P(=O)(O)O,> 100
4,Cc1ccc(-n2cnc(C(=N)C#N)c2N)cc1,> 100
5,COC(=O)/C=C(\C(=O)OC)C1C(=O)Oc2c(C)c(=O)c3ccccc3n21 (stereo not given),> 100
6,O=C(O)c1nnsc1-c1ccc(-c2snnc2C(=O)O)cc1,> 100
7,CC(=O)c1ccccc1NP(=O)(c1ccccc1)c1ccccc1,34.4

# Tested on: HT29 colon
# Assay: DTP human tumour cell line panel, 48 h
row,SMILES,TGI [µM]
1,CCN(CC)Cc1ccc(C(=S)Nc2ccc(Cl)cc2)s1,12
2,COC(=O)C(CC(C)C)NC(=O)C(C)NC(=O)C(Cc1ccc(OCc2ccccc2)cc1)NC(=O)C(COCc1ccccc1)NC(=O)OC(C)(C)C (stereo not given) (Boc-S(Bn)Y(Bn)AL-OMe; configuration not given here),> 100
3,CCn1c(-c2ccccc2)cs/c1=N\C(P(=O)(O)O)P(=O)(O)O,> 100
4,Cc1ccc(-n2cnc(C(=N)C#N)c2N)cc1,> 100
5,COC(=O)/C=C(\C(=O)OC)C1C(=O)Oc2c(C)c(=O)c3ccccc3n21 (stereo not given),> 100
6,O=C(O)c1nnsc1-c1ccc(-c2snnc2C(=O)O)cc1,> 100
7,CC(=O)c1ccccc1NP(=O)(c1ccccc1)c1ccccc1,> 100

# Tested on: MDA-MB-231 breast
# Assay: DTP human tumour cell line panel, 48 h
row,SMILES,TGI [µM]
1,CCn1c(-c2ccccc2)cs/c1=N\C(P(=O)(O)O)P(=O)(O)O,> 100
2,Cc1ccc(-n2cnc(C(=N)C#N)c2N)cc1,> 100
3,COC(=O)/C=C(\C(=O)OC)C1C(=O)Oc2c(C)c(=O)c3ccccc3n21 (stereo not given),> 100
4,O=C(O)c1nnsc1-c1ccc(-c2snnc2C(=O)O)cc1,> 100
5,CC(=O)c1ccccc1NP(=O)(c1ccccc1)c1ccccc1,> 100

# Tested on: A498 renal
# Assay: DTP human tumour cell line panel, 48 h
row,SMILES,TGI [µM]
1,CCN(CC)Cc1ccc(C(=S)Nc2ccc(Cl)cc2)s1,25.8
2,CCn1c(-c2ccccc2)cs/c1=N\C(P(=O)(O)O)P(=O)(O)O,> 100
3,Cc1ccc(-n2cnc(C(=N)C#N)c2N)cc1,> 100
4,O=C(O)c1nnsc1-c1ccc(-c2snnc2C(=O)O)cc1,> 100
5,CC(=O)c1ccccc1NP(=O)(c1ccccc1)c1ccccc1,> 100

# Tested on: MCF7 breast
# Assay: DTP human tumour cell line panel, 48 h
row,SMILES,TGI [µM]
1,CCN(CC)Cc1ccc(C(=S)Nc2ccc(Cl)cc2)s1,25.5
2,COC(=O)C(CC(C)C)NC(=O)C(C)NC(=O)C(Cc1ccc(OCc2ccccc2)cc1)NC(=O)C(COCc1ccccc1)NC(=O)OC(C)(C)C (stereo not given) (Boc-S(Bn)Y(Bn)AL-OMe; configuration not given here),> 100
3,CCn1c(-c2ccccc2)cs/c1=N\C(P(=O)(O)O)P(=O)(O)O,> 100
4,Cc1ccc(-n2cnc(C(=N)C#N)c2N)cc1,> 100
5,COC(=O)/C=C(\C(=O)OC)C1C(=O)Oc2c(C)c(=O)c3ccccc3n21 (stereo not given),> 100
6,O=C(O)c1nnsc1-c1ccc(-c2snnc2C(=O)O)cc1,> 100
7,CC(=O)c1ccccc1NP(=O)(c1ccccc1)c1ccccc1,> 100

# Tested on: UACC-62 melanoma
# Assay: DTP human tumour cell line panel, 48 h
row,SMILES,TGI [µM]
1,CCN(CC)Cc1ccc(C(=S)Nc2ccc(Cl)cc2)s1,23
2,COC(=O)C(CC(C)C)NC(=O)C(C)NC(=O)C(Cc1ccc(OCc2ccccc2)cc1)NC(=O)C(COCc1ccccc1)NC(=O)OC(C)(C)C (stereo not given) (Boc-S(Bn)Y(Bn)AL-OMe; configuration not given here),> 100
3,CCn1c(-c2ccccc2)cs/c1=N\C(P(=O)(O)O)P(=O)(O)O,> 100
4,Cc1ccc(-n2cnc(C(=N)C#N)c2N)cc1,> 100
5,COC(=O)/C=C(\C(=O)OC)C1C(=O)Oc2c(C)c(=O)c3ccccc3n21 (stereo not given),> 100
6,O=C(O)c1nnsc1-c1ccc(-c2snnc2C(=O)O)cc1,> 100
7,CC(=O)c1ccccc1NP(=O)(c1ccccc1)c1ccccc1,> 100

# Tested on: SK-MEL-2 melanoma
# Assay: DTP human tumour cell line panel, 48 h
row,SMILES,TGI [µM]
1,CCN(CC)Cc1ccc(C(=S)Nc2ccc(Cl)cc2)s1,32.1
2,Cc1ccc(-n2cnc(C(=N)C#N)c2N)cc1,> 100
3,COC(=O)/C=C(\C(=O)OC)C1C(=O)Oc2c(C)c(=O)c3ccccc3n21 (stereo not given),> 100
4,O=C(O)c1nnsc1-c1ccc(-c2snnc2C(=O)O)cc1,> 100
5,CC(=O)c1ccccc1NP(=O)(c1ccccc1)c1ccccc1,> 100

# Tested on: M14 melanoma
# Assay: DTP human tumour cell line panel, 48 h
row,SMILES,TGI [µM]
1,CCN(CC)Cc1ccc(C(=S)Nc2ccc(Cl)cc2)s1,14.2
2,COC(=O)C(CC(C)C)NC(=O)C(C)NC(=O)C(Cc1ccc(OCc2ccccc2)cc1)NC(=O)C(COCc1ccccc1)NC(=O)OC(C)(C)C (stereo not given) (Boc-S(Bn)Y(Bn)AL-OMe; configuration not given here),> 100
3,CCn1c(-c2ccccc2)cs/c1=N\C(P(=O)(O)O)P(=O)(O)O,> 100
4,Cc1ccc(-n2cnc(C(=N)C#N)c2N)cc1,> 100
5,COC(=O)/C=C(\C(=O)OC)C1C(=O)Oc2c(C)c(=O)c3ccccc3n21 (stereo not given),> 100
6,O=C(O)c1nnsc1-c1ccc(-c2snnc2C(=O)O)cc1,> 100
7,CC(=O)c1ccccc1NP(=O)(c1ccccc1)c1ccccc1,> 100
